This data set in a line: gradient 5% acetonitrile 3 min, to 50% in 2 min, to 85% in 15 min, held 3 min, 100 µL/min. The note with it: column: Zorbax Extend-C18 2.1 x 50 mm; eluents: water / acetonitrile, 0.1% formic acid. The essentials: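 Using water and acetonitrile that each contained 0.1% formic acid, mixtures of ~100 pure standards were separated at 100 μL/min on a Zorbax Extend-C18 column (2.1 × 50 mm, 1.8 μm). The HPLC fed a quadrupole time-of-flight mass spectrometer working in positive and negative ionization mode, with dead and dwell volumes of 40 μL and 900 μL. Data were acquired over 3 months. Retention time was read from computationally picked adduct peaks after manual inspection of each.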
`COc1cccc(C(=O)N2CCN(S(=O)(=O)c3cc4c5c(c3)CCC(=O)N5CCC4)CC2)c1` gave an RP-LC retention time of 770 s.

`CC1CCCN(c2nn(CC(=O)Nc3ccc4c(c3)OCCO4)c(=O)c3ccccc23)C1` (stereo not given) had an RP-LC retention time of 1030 s.

For the compound `COc1ccc(C(=O)N[C@@H]2CCC[C@@H]2C(=O)N(C)C)cn1`, the RP-LC retention time stood at 595 s.

In the case of `CCc1ccc(-c2noc(Cn3c(=O)n(Cc4cccc(OC)c4)c(=O)c4sccc43)n2)cc1`, the RP-LC retention time is 1170 s.

With `COc1ccc(-c2ncc3c(n2)CCN(S(=O)(=O)c2cccc(Cl)c2)C3)cc1`, the RP-LC retention time was 1100 s.

With `COc1ccccc1CCc1nc(C2CC(=O)N(c3ccc(F)c(Cl)c3)C2)no1` (stereo not given), the RP-LC retention time is 1110 s.

Turning to `CCN(c1cccc(C)c1)S(=O)(=O)c1cc2n(c1)CCCNC2=O`, the RP-LC retention time worked out at 720 s.

`Cc1nc2ccn(Cc3cccnc3)c(=O)c2cc1C(=O)NCCc1c[nH]c2ccccc12` returned an RP-LC retention time of 626 s.

Compound `CCN(CC)C(=O)c1ccc2c(c1)nnn2CCNC(=O)Nc1ccc(Br)c(C)c1` showed an RP-LC retention time of 785 s.

`Cn1cc(S(=O)(=O)N2CCCCC2)cc1C(=O)N1CCc2ccccc2C1` returned an RP-LC retention time of 938 s.

In turn, `CS(=O)(=O)N1CCOc2ccc(NC(=O)C3CC3)cc2C1` showed an RP-LC retention time of 696 s.

As to `Cc1ccccc1CNC(=O)Cn1cccc1-c1nnc(-c2ccccc2)o1`, the RP-LC retention time is 950 s.

Consider `Cc1oc(-c2[nH]ncc2C(=O)N2CCCC2)cc1S(=O)(=O)N1CCN(C)CC1`, for which the RP-LC retention time worked out at 574 s.

The compound `CCc1nc2cc(-c3noc(-c4cncc(Br)c4)n3)ccc2o1` yielded an RP-LC retention time of 1160 s.

On to `O=C(Nc1ccc(Cn2cnc(C(=O)NCc3ccc(F)cc3)c2)cc1)c1cccc(F)c1`, for which the RP-LC retention time came to 769 s.

`Clc1ccc(C(Cn2ccnc2)OCc2csc3c(Cl)cccc23)c(Cl)c1` (stereo not given) registered an RP-LC retention time of 974 s.

Compound `CCOCC1CCC2(CCN(S(=O)(=O)c3ccc(C)c(F)c3)CC2)O1` (stereo not given) came in with an RP-LC retention time of 1090 s.

As to `O=S1(=O)N(Cc2cccc(F)c2)CCCN1Cc1ccccc1Cl`, the RP-LC retention time worked out at 1180 s.

As for `Cc1sc(-c2cc(C(F)(F)F)on2)cc1S(=O)(=O)NCCC1=CCCCC1`, the RP-LC retention time was 1320 s.

With `CCOc1ccc(-c2cc3c(=O)n(Cc4nc(-c5ccc(F)c(Cl)c5)no4)ncn3n2)cc1`, the RP-LC retention time stood at 982 s.

On to `O=C(NCCCNC(=O)NC1CCCCC1)NC1CCCCC1`, for which the RP-LC retention time was 673 s.

As for `CCc1nnc(NC(=O)c2c[nH]c3c(Cl)cccc3c2=O)s1`, the RP-LC retention time was 693 s.

Take `COc1cc(NC(=O)CN2C(=O)COc3ccc(C(=O)N4CCCC4)cc32)cc(OC)c1`: the RP-LC retention time came to 718 s.

The compound `CS(=O)(=O)N1CCC(C(=O)Nc2ccccc2Br)Oc2ccccc21` (stereo not given) came in with an RP-LC retention time of 996 s.

`CCNC(=O)c1cc(N2CCCC2)nc2ccccc12` registered an RP-LC retention time of 841 s.

In turn, `CNC(=O)c1c(NC(=O)c2cccc(Cl)c2)sc2c1CCC2` registered an RP-LC retention time of 1160 s.

In the case of `CSc1ncc(C(=O)NC2CC2)c(N)n1`, the RP-LC retention time stood at 543 s.

In turn, `Cc1ccccc1-c1nc(-c2ccc3nncn3c2)no1` came in with an RP-LC retention time of 872 s.

In turn, `Cc1nn(CC(=O)NCc2ccccn2)c(=O)c2nc(-c3ccccc3)sc12` had an RP-LC retention time of 633 s.

The compound `Cc1cccc(NC(=O)c2csc(-c3cn(C)c4ncccc34)n2)c1` registered an RP-LC retention time of 1040 s.

`c1ccc(SCc2nnc3sc(-c4cnccn4)nn23)cc1` displayed an RP-LC retention time of 774 s.

Consider `Cc1cc(N(C)C)n2nc(CN3CCCC(C)C3)nc2n1` (stereo not given), for which the RP-LC retention time is 536 s.

As for `COc1cccc(CC(=O)Nc2ccc3c(c2)Sc2ncccc2C(=O)N3C)c1`, the RP-LC retention time came to 762 s.

The compound `COC(=O)c1ccccc1Nc1c(-c2cccc(O)c2)nc2cnccn12` displayed an RP-LC retention time of 792 s.

In turn, `CCn1cc(-c2nc(CC(=O)Nc3cccc(Cl)c3)cs2)c2cccnc21` returned an RP-LC retention time of 942 s.

Regarding `CC(C)C(=O)N1CCCC(c2nc(CNC(=O)C3CCC3)cs2)C1` (stereo not given), the RP-LC retention time was found to be 679 s.

In turn, `O=C(c1ccc2snnc2c1)N1CCN(c2ccccn2)CC1` yielded an RP-LC retention time of 576 s.

`CCc1ccc(S(=O)(=O)Nc2ccc(-c3cn4cccc(C)c4n3)cc2)cc1` came in with an RP-LC retention time of 667 s.

The compound `CCOc1ccc(CNC(=O)Cc2csc3nc(-c4ccc(C)c(C)c4)cn23)cc1OC` gave an RP-LC retention time of 810 s.

As for `O=c1c2ccccc2n(Cc2nc(-c3cccc(C(F)(F)F)c3)no2)c(=O)n1CC1CCCO1` (stereo not given), the RP-LC retention time came to 1100 s.

Take `COCC(C)NC(=O)CN1c2ccc(F)cc2-c2ccccc2S1(=O)=O` (stereo not given): the RP-LC retention time is 785 s.

Turning to `O=C(Cc1nnc(-c2cnccn2)o1)Nc1ccc(Cl)cc1Cl`, the RP-LC retention time was determined as 753 s.

The compound `O=C(CCC[C@@H]1[C@H]2CCCN3CCC[C@@H](CN1S(=O)(=O)c1cccs1)[C@@H]23)N1CCOCC1` returned an RP-LC retention time of 588 s.

Compound `CCc1ccc(CNC(=O)c2nnc(-c3ccc(S(=O)(=O)N(C)C)cc3)o2)cc1` showed an RP-LC retention time of 959 s.

Take `COc1ccccc1N1CCN(c2ccc3cc(S(=O)(=O)N4CCCC4)ccc3n2)CC1`: the RP-LC retention time was determined as 855 s.

`COc1ccc(C(=O)Nc2nc(-c3ccccc3)cs2)cc1` had an RP-LC retention time of 1040 s.

Take `O=C(c1ccccn1)N1CCC(n2c(-c3ccsc3)nc3cccnc32)C1` (stereo not given): the RP-LC retention time is 625 s.

In turn, `O=C(Cn1cnc2c(-c3ccc(F)cc3)csc2c1=O)Nc1ccc(Br)cc1F` showed an RP-LC retention time of 1030 s.

On to `Cn1nc(-c2nnc(-c3ccc(F)cc3)o2)c2c1CCN(S(=O)(=O)c1ccc(Cl)s1)C2`, for which the RP-LC retention time came out at 1010 s.

The compound `O=C(NCCCN1CCC(N2CCCCC2)CC1)c1cc(=O)n2c(nc3ccccc32)s1` registered an RP-LC retention time of 577 s.

With `COc1ccc(Cc2nc(-c3ccc4c(c3)ncn4CCN3CCCCC3)no2)cc1`, the RP-LC retention time was 626 s.

`COc1ccc(CN2C=C(C(=O)OCc3nc(C4CC4)no3)C(C)=NS2(=O)=O)cc1` yielded an RP-LC retention time of 972 s.

Compound `COc1ccccc1C(=O)Nc1ccc2nc(N3CCN(CC(=O)N(C)C)CC3)cc(C(=O)O)c2c1` had an RP-LC retention time of 579 s.

Turning to `Cc1cc2c(cc(C(=O)NCCCc3ccccc3)n2Cc2ccc(Cl)cc2)o1`, the RP-LC retention time worked out at 1270 s.

Compound `COc1nccc(N2CCC(CC(=O)NCc3cccc(OC)c3OC)CC2)n1` gave an RP-LC retention time of 607 s.

`COc1ccc(-c2csc(NC(=O)c3ccc4c(c3)OCCO4)n2)cc1OC` displayed an RP-LC retention time of 963 s.

Take `CCNS(=O)(=O)c1cc(-c2nnc(-c3ccc(OC)c(OC)c3)o2)ccc1C`: the RP-LC retention time amounted to 833 s.

With `CCN(C(=O)C(=O)c1c(C)[nH]c2ccccc12)c1ccccc1`, the RP-LC retention time came out at 809 s.

With `O=C(c1cccs1)N1CCC(c2noc(-c3cnccn3)n2)C1` (stereo not given), the RP-LC retention time is 678 s.

In turn, `O=C(NCc1ccccc1)c1ccc(-c2cccs2)nc1` displayed an RP-LC retention time of 884 s.

Consider `Cc1ccc(CN2CCn3c(nnc3[C@@H]3C[C@@H](O)CN3Cc3cccnc3)C2)s1`, for which the RP-LC retention time stood at 566 s.

Consider `CN(C)C(=O)c1ccc2c(c1)N(CC(=O)Nc1cccnc1)C(=O)CO2`, for which the RP-LC retention time came out at 572 s.

`O=C(Cc1ccsc1)NC1CCc2nnc(C3CC3)n2CC1` (stereo not given): the RP-LC retention time was determined as 594 s.

`O=C(Nc1cc(-c2ccccn2)no1)C1CCCC1`: the RP-LC retention time worked out at 765 s.

Compound `CCOc1ccc(-c2noc(CN3C(=O)C(C)Oc4ccccc43)n2)cc1OC` (stereo not given) yielded an RP-LC retention time of 1040 s.

In turn, `COc1cccc(CNC(=O)C2CCCN(c3ncnc4c3oc3ccccc34)C2)c1` (stereo not given) returned an RP-LC retention time of 734 s.

Turning to `CCCn1c(=O)c(N2CCN(C(=O)C3CC3)CC2)nc2ccccc21`, the RP-LC retention time came out at 912 s.

In the case of `CN(C)C(=O)CN1CCN(c2ccc(NC(=O)C(C)(C)C)c(C(=O)O)c2)CC1`, the RP-LC retention time amounted to 595 s.

For `COc1cc(-c2nc3ncccn3c2Nc2c(C)cccc2C)ccc1O`, the RP-LC retention time stood at 683 s.

`CCCn1cc(CCNC(=O)Cc2ccccc2Cl)c2cccnc21` showed an RP-LC retention time of 770 s.

Compound `Cn1cc(CCN2CCC(C(=O)NCC3CCCO3)CC2)c2cccnc21` (stereo not given) had an RP-LC retention time of 562 s.

With `COc1cc(C(=O)N2CCC3(CC2)NC(=O)c2cc(F)ccc2N3C)cc(OC)c1OC`, the RP-LC retention time is 655 s.

As to `CC1CCN(S(=O)(=O)c2cccn(CC(=O)N3CCCc4ccccc43)c2=O)CC1`, the RP-LC retention time was 910 s.

Turning to `COCCCNC(=O)c1ccc2c(c1)CCCN2S(C)(=O)=O`, the RP-LC retention time amounted to 667 s.

Compound `CCc1ccc(NC(=O)CSC2=C(C#N)C3(CCCCC3)C(C#N)C(=O)N2)cc1` (stereo not given) gave an RP-LC retention time of 1030 s.

`COc1ccc(NC(=O)N2CCN(c3cnn4c(C)nnc4c3)CC2)cc1OC` returned an RP-LC retention time of 577 s.

With `Cn1c(N2CCCC(C(=O)NCc3cccc(F)c3)C2)cc(=O)n(C)c1=O` (stereo not given), the RP-LC retention time is 676 s.

As for `CCN(CC)c1nc2cc(C(=O)OC)ccc2c(=O)n1-c1cc(OC)cc(OC)c1`, the RP-LC retention time came out at 1090 s.

Take `CCOCCCNC(=O)C1CCCN(c2ccc(-c3ccc(C)c(C)c3)nn2)C1` (stereo not given): the RP-LC retention time was determined as 687 s.

Turning to `COC(=O)CCN1C(=O)c2ccccc2C1=O`, the RP-LC retention time stood at 688 s.
